Results on 15 molecules are retold here after patent US20240409585A1, “MACROCYCLIC IMMUNOMODULATORS” (priority 2021, published 2024).

For the assay, the target named is T1, PE-labeled human PD-L1-Ig binding to Jurkat cell line over-expressing human PD-1 (Jurkat-PD-1) (Homo sapiens, UniProt Q15116).
T1 construct: expressed in transfected cells; host or cells: Jurkat
The assay is described as follows: Jurkat-PD-1 Cell Binding High-Content Screening Assay (CBA): Method 1. To be noted: Jurkat-hPD-1 cells, PE-labeled PD-L1-Ig 20 nM final; read-out: Jurkat HPDL1 PD1 IC50 (uM) (Method 1).

Each structure is given as a SMILES string. Numbered stars: 1 amine (or outer) side, 2 acyl side, 3 side chain; on linkers, the order of the positions; unused ones are H or OH. Bridge positions count the residues as written; N and C are the ends. Square brackets hold non-standard residues; d marks the D form. Peptide text beside a SMILES is read from it. * marks the point of attachment. ξ: configuration not given here. dPhe(3-NO2) = N[C@H](Cc1cccc([N+](=O)[O-])c1)C(=O)O; X36 = O=C([C@H](Cc1ccc(-c2ccsc2)cc1)N[*:1])[*:2]; Phe(3-CF3) = N[C@@H](Cc1cccc(C(F)(F)F)c1)C(=O)O; Phe(4-COOH) = N[C@@H](Cc1ccc(C(=O)O)cc1)C(=O)O; Trp(7-Me) = Cc1cccc2c(C[C@H](N)C(=O)O)c[nH]c12; Bip = N[C@@H](Cc1ccc(-c2ccccc2)cc1)C(=O)O; Phe(3-OMe) = COc1cccc(C[C@H](N)C(=O)O)c1; Phe(4-CN) = N#Cc1ccc(C[C@H](N)C(=O)O)cc1; Phe(3-Me) = Cc1cccc(C[C@H](N)C(=O)O)c1; Bta = N[C@@H](Cc1csc2ccccc12)C(=O)O; Val(3-OH) = CC(C)(O)[C@H](N)C(=O)O; 4Pal = N[C@@H](Cc1ccncc1)C(=O)O; Cha = N[C@@H](CC1CCCCC1)C(=O)O; Cit = NC(=O)NCCC[C@H](N)C(=O)O; Thr(3ξ) = CC(O)[C@H](N)C(=O)O; Pip = O=C(O)[C@@H]1CCCCN1; Carboxymethyl = O=C(O)C*; NMeA = CN[C@@H](C)C(=O)O; Orn = NCCC[C@H](N)C(=O)O; Dab = NCC[C@H](N)C(=O)O; Dap = NC[C@H](N)C(=O)O

T1 sequence (Q15116 25-288): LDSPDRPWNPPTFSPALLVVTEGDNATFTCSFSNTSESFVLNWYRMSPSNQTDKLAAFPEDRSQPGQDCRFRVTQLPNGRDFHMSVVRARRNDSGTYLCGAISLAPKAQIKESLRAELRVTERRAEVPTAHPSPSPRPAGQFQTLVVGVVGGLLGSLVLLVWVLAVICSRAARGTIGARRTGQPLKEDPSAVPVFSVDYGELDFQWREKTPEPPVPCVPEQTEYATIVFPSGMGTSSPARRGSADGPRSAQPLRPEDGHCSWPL

Take `COc1cccc(C[C@@H]2NC(=O)[C@H](CC(=O)O)NC(=O)[C@H](Cc3ccc(O)cc3)NC(=O)[C@H](CC(N)=O)NC(=O)CSC[C@@H](C(=O)N[C@@H](C)C(N)=O)NC(=O)[C@H]([C@@H](C)O)NC(=O)[C@H](C(C)C)NC(=O)[C@H](CC(C)C)NC(=O)[C@H](CCN)NC(=O)[C@@H](CC(C)C)NC(=O)[C@H](C)N(C)C(=O)[C@H](CCCNC(N)=O)NC(=O)[C@H](Cc3ccc(-c4ccccc4)cc3)NC(=O)[C@H](C(C)C)NC2=O)c1` [Compound 1231] ({CH2CO}-NYD[Phe(3-OMe)]V[Bip][Cit][NMeA][dL][Dab]LVTCA-NH2; thioether N-14): the IC50 was 0.04 µM.

With `CC(=O)NCCCC[C@@H]1NC(=O)[C@H](Cc2ccc(-c3ccccc3)cc2)NC(=O)[C@H](Cc2ccc(O)cc2)NC(=O)[C@H](Cc2c[nH]c3ccccc23)NC(=O)[C@H](CC(=O)O)NC(=O)[C@H](Cc2ccc(OCC(=O)O)cc2)NC(=O)[C@H](C(C)O)NC(=O)CSC[C@@H](C(N)=O)NC(=O)[C@H](C(C)O)NC(=O)[C@H](C(C)C)NC(=O)[C@H](CC2CCCCC2)NC(=O)[C@H](CCN)NC(=O)[C@@H](CC(C)C)NC(=O)[C@H](C)N(C)C1=O` (stereo partly drawn) [Compound 2254] ({CH2CO}-[Thr(3ξ)]Y(Carboxymethyl)DWY[Bip]K(Ac)[NMeA][dL][Dab][Cha]V[Thr(3ξ)]C-NH2; thioether N-14), the IC50 was determined as 0.16 µM.

Regarding `CC(C)C[C@@H]1NC(=O)[C@H](CCN)NC(=O)[C@@H](CC(C)C)NC(=O)[C@H](C)N(C)C(=O)[C@H](CCCNC(=N)N)NC(=O)[C@H](Cc2ccc(-c3ccsc3)cc2)NC(=O)[C@H](C(C)C)NC(=O)[C@H](Cc2c[nH]c3ccccc23)NC(=O)[C@H](CC(=O)O)NC(=O)[C@H](Cc2ccc(O)cc2)NC(=O)[C@H](CC(N)=O)NC(=O)CSC[C@@H](C(=O)N[C@@H](C)C(N)=O)NC(=O)[C@H]([C@@H](C)O)NC(=O)[C@H](C(C)C)NC1=O` [Compound 1224] ({CH2CO}-NYDWV[X36]R[NMeA][dL][Dab]LVTCA-NH2; thioether N-14), the IC50 turned out to be 0.04 µM.

For the molecule `CC(C)C[C@@H]1NC(=O)[C@H](CCN)NC(=O)[C@@H](CC(C)C)NC(=O)[C@H](C)N(C)C(=O)[C@H](Cc2cnc[nH]2)NC(=O)[C@H](Cc2ccc(-c3ccccc3)cc2)NC(=O)[C@H](C(C)C)NC(=O)[C@H](Cc2c[nH]c3ccccc23)NC(=O)[C@H](CC(=O)O)NC(=O)[C@H](Cc2cccc(C(F)(F)F)c2)NC(=O)[C@H](CN)NC(=O)CSC[C@@H](C(=O)N[C@@H](C)C(N)=O)NC(=O)[C@H]([C@@H](C)O)NC(=O)[C@H](C(C)C)NC1=O` [Compound 1434] ({CH2CO}-[Dap][Phe(3-CF3)]DWV[Bip]H[NMeA][dL][Dab]LVTCA-NH2; thioether N-14), the IC50 turned out to be 0.05 µM.

On to `Cc1cccc(C[C@@H]2NC(=O)[C@H](CC(=O)O)NC(=O)[C@H](Cc3ccncc3)NC(=O)[C@H](CN)NC(=O)CSC[C@@H](C(=O)N[C@@H](C)C(N)=O)NC(=O)[C@H]([C@@H](C)O)NC(=O)[C@H](C(C)C)NC(=O)[C@H](CC(C)C)NC(=O)[C@H](CCN)NC(=O)[C@@H](CC(C)C)NC(=O)[C@H](C)N(C)C(=O)[C@H](CCCNC(N)=O)NC(=O)[C@H](Cc3ccc(-c4ccccc4)cc3)NC(=O)[C@H](C(C)C)NC2=O)c1` [Compound 1546] ({CH2CO}-[Dap][4Pal]D[Phe(3-Me)]V[Bip][Cit][NMeA][dL][Dab]LVTCA-NH2; thioether N-14), for which the IC50 came out at 0.02 µM.

Regarding `CC(C)C[C@@H]1NC(=O)[C@H](CCCNC(=N)N)NC(=O)[C@@H](Cc2cccc([N+](=O)[O-])c2)NC(=O)[C@H](C)N(C)C(=O)[C@H](CCCNC(=N)N)NC(=O)[C@H](Cc2ccc(-c3ccccc3)cc2)NC(=O)[C@H](C(C)C)NC(=O)[C@H](Cc2c[nH]c3ccccc23)NC(=O)[C@H](CC(=O)O)NC(=O)[C@H](Cc2ccc(O)cc2)NC(=O)[C@H](Cc2ccccc2)NC(=O)CSC[C@@H](C(=O)N[C@@H](C)C(N)=O)NC(=O)[C@H]([C@@H](C)O)NC(=O)[C@H](C(C)C)NC1=O` [Compound 1074] ({CH2CO}-FYDWV[Bip]R[NMeA][dPhe(3-NO2)]RLVTCA-NH2; thioether N-14), the IC50 is 0.11 µM.

Take `Cc1cccc(C[C@@H]2NC(=O)[C@H](CC(=O)O)NC(=O)[C@H](Cc3ccc(O)cc3)NC(=O)[C@H](CN)NC(=O)CSC[C@@H](C(=O)N[C@@H](C)C(N)=O)NC(=O)[C@H]([C@@H](C)O)NC(=O)[C@H](C(C)C)NC(=O)[C@H](CC(C)C)NC(=O)[C@H](CCN)NC(=O)[C@@H](CC(C)C)NC(=O)[C@H](C)N(C)C(=O)[C@H](C(C)C)NC(=O)[C@H](Cc3ccc(-c4ccccc4)cc3)NC(=O)[C@H](C(C)C)NC2=O)c1` [Compound 1428] ({CH2CO}-[Dap]YD[Phe(3-Me)]V[Bip]V[NMeA][dL][Dab]LVTCA-NH2; thioether N-14): the IC50 amounted to 0.04 µM.

Take `CC(C)C[C@@H]1NC(=O)[C@H](Cc2c[nH]c3ccccc23)NC(=O)[C@H](CC(=O)O)NC(=O)[C@H](Cc2ccc(C(=O)O)cc2)NC(=O)[C@H](Cc2ccc(OCC(=O)O)cc2)NC(=O)CSC[C@@H](C(N)=O)NC(=O)[C@H](CO)NC(=O)[C@H](C(C)C)NC(=O)[C@H](CC2CCCCC2)NC(=O)[C@H](CCN)NC(=O)[C@@H](CC(C)C)NC(=O)[C@H](C)N(C)C(=O)[C@H](C(C)C)NC(=O)[C@H](Cc2ccc(-c3ccccc3)cc2)NC1=O` [Compound 1426] ({CH2CO}-Y(Carboxymethyl)[Phe(4-COOH)]DWL[Bip]V[NMeA][dL][Dab][Cha]VSC-NH2; thioether N-14): the IC50 came out at 0.01 µM.

Take `CC(C)C[C@@H]1NC(=O)[C@H](CCN)NC(=O)[C@@H](CC(C)C)NC(=O)[C@H](C)N(C)C(=O)[C@H](CCCNC(=N)N)NC(=O)[C@H](Cc2ccc(-c3ccccc3)cc2)NC(=O)[C@H](C(C)C)NC(=O)[C@H](Cc2c[nH]c3ccccc23)NC(=O)[C@H](CC(N)=O)NC(=O)[C@H](Cc2ccc(OCC(=O)O)cc2)NC(=O)[C@H](CC(N)=O)NC(=O)CSC[C@@H](C(=O)N[C@@H](C)C(N)=O)NC(=O)[C@H]([C@@H](C)O)NC(=O)[C@H](C(C)C)NC1=O` [Compound 1206] ({CH2CO}-NY(Carboxymethyl)NWV[Bip]R[NMeA][dL][Dab]LVTCA-NH2; thioether N-14): the IC50 is 0.59 µM.

For the molecule `CC(C)C[C@@H]1NC(=O)[C@H](CCCN)NC(=O)[C@H](Cc2csc3ccccc23)NC(=O)[C@H](C)N(C)C(=O)[C@H](CCC(=O)O)NC(=O)[C@H](Cc2ccc(-c3ccccc3)cc2)NC(=O)[C@H](C(C)C)NC(=O)[C@H](Cc2c[nH]c3ccccc23)NC(=O)[C@H](CC(=O)O)NC(=O)[C@H](Cc2ccc(O)cc2)NC(=O)[C@H](Cc2ccccc2)NC(=O)CSC[C@@H](C(=O)N[C@@H](C)C(N)=O)NC(=O)[C@H]([C@@H](C)O)NC(=O)[C@H](C(C)C)NC1=O` [Compound 1132] ({CH2CO}-FYDWV[Bip]E[NMeA][Bta][Orn]LVTCA-NH2; thioether N-14), the IC50 stood at 0.16 µM.

For `CC[C@H](C)[C@@H]1NC(=O)[C@H](Cc2ccc(-c3ccccc3)cc2)NC(=O)[C@H](C(C)C)NC(=O)[C@H](Cc2cccc(C)c2)NC(=O)[C@H](CC(=O)O)NC(=O)[C@H](Cc2ccc(O)cc2)NC(=O)[C@H](CC(N)=O)NC(=O)CSC[C@@H](C(=O)N[C@@H](CCN)C(N)=O)NC(=O)[C@H](CCC(=O)O)NC(=O)[C@H](C(C)(C)O)NC(=O)[C@H](CC2CCCCC2)NC(=O)[C@H](CCN)NC(=O)[C@@H](CC(C)C)NC(=O)[C@H](C)N(C)C1=O` [Compound 1695] ({CH2CO}-NYD[Phe(3-Me)]V[Bip]I[NMeA][dL][Dab][Cha][Val(3-OH)]EC[Dab]-NH2; thioether N-14), the IC50 came out at 0.01 µM.

`CC(C)C[C@@H]1NC(=O)[C@H](CCN)NC(=O)[C@@H](CC(C)C)NC(=O)[C@H](C)N(C)C(=O)[C@H](CCCNC(N)=O)NC(=O)[C@H](Cc2ccc(-c3ccccc3)cc2)NC(=O)[C@H](C(C)C)NC(=O)[C@H](Cc2c[nH]c3ccccc23)NC(=O)[C@H](CC(=O)O)NC(=O)[C@H](Cc2ccc(C#N)cc2)NC(=O)[C@H](CC(N)=O)NC(=O)CSC[C@@H](C(=O)N[C@@H](C)C(N)=O)NC(=O)[C@H]([C@@H](C)O)NC(=O)[C@H](C(C)C)NC1=O` [Compound 1312] ({CH2CO}-N[Phe(4-CN)]DWV[Bip][Cit][NMeA][dL][Dab]LVTCA-NH2; thioether N-14): the IC50 was determined as 0.05 µM.

Regarding `CC(=O)NCCCC[C@@H]1NC(=O)[C@H](Cc2ccc(-c3ccccc3)cc2)NC(=O)[C@H](Cc2ccc(O)cc2)NC(=O)[C@H](Cc2cccc(C)c2)NC(=O)[C@H](CC(=O)O)NC(=O)[C@H](Cc2ccc(OCC(=O)O)cc2)NC(=O)[C@H](C(C)O)NC(=O)CSC[C@@H](C(=O)N[C@@H](CO)C(N)=O)NC(=O)[C@H](C(C)O)NC(=O)[C@H](C(C)C)NC(=O)[C@H](CC2CCCCC2)NC(=O)[C@H](CCN)NC(=O)[C@@H](CC(C)C)NC(=O)[C@H](C)N(C)C1=O` (stereo partly drawn) [Compound 2119] ({CH2CO}-[Thr(3ξ)]Y(Carboxymethyl)D[Phe(3-Me)]Y[Bip]K(Ac)[NMeA][dL][Dab][Cha]V[Thr(3ξ)]CS-NH2; thioether N-14), the IC50 amounted to 0.02 µM.

As to `Cc1cccc2c(C[C@@H]3NC(=O)[C@H](CC(=O)O)NC(=O)[C@H](Cc4ccc(O)cc4)NC(=O)[C@H](Cc4ccccc4)NC(=O)CSC[C@@H](C(=O)N[C@@H](C)C(N)=O)NC(=O)[C@H]([C@@H](C)O)NC(=O)[C@H](C(C)C)NC(=O)[C@H](CC(C)C)NC(=O)[C@H](CCN)NC(=O)[C@@H](CC(C)C)NC(=O)[C@H](C)N(C)C(=O)[C@H](CCCNC(=N)N)NC(=O)[C@H](Cc4ccc(-c5ccccc5)cc4)NC(=O)[C@H](C(C)C)NC3=O)c[nH]c12` [Compound 1201] ({CH2CO}-FYD[Trp(7-Me)]V[Bip]R[NMeA][dL][Dab]LVTCA-NH2; thioether N-14), the IC50 is 0.56 µM.

`CC(C)C[C@@H]1NC(=O)[C@H](CCN)NC(=O)[C@@H](CC(C)C)NC(=O)[C@@H]2CCCCN2C(=O)[C@H](CCCNC(N)=O)NC(=O)[C@H](Cc2ccc(-c3ccccc3)cc2)NC(=O)[C@H](C(C)C)NC(=O)[C@H](Cc2c[nH]c3ccccc23)NC(=O)[C@H](CC(=O)O)NC(=O)[C@H](Cc2ccc(O)cc2)NC(=O)[C@H](CC(N)=O)NC(=O)CSC[C@@H](C(=O)N[C@@H](C)C(N)=O)NC(=O)[C@H]([C@@H](C)O)NC(=O)[C@H](C(C)C)NC1=O` [Compound 1382] ({CH2CO}-NYDWV[Bip][Cit][Pip][dL][Dab]LVTCA-NH2; thioether N-14): the IC50 turned out to be 0.08 µM.
